# Measured values published in patent US7919093B2, “Roles for dual endothelin-1/angiotensin II receptor (Dear) in hypertension and angiogenesis” (Trustees of Boston University, priority 2004, dated 2011).
# Numbering of substitutions follows the chain as printed.
# Tests used:
# [1] = target: T1, Dahl S Dear S44/M74 variant (Rattus norvegicus, UniProt D3ZGZ6, F4L); assay: Radioligand binding to Dahl S Dear expressed in Cos1 cell membranes; settings: for hormone binding, in words: Dahl S Dear transiently expressed in Cos1 cells; for Bmax / h (Hill coefficient): S44/M74 variant, mean ± s.e.m.
# T1 construct: expressed in transfected cells; host or cells: Cos1 cells (membranes), pcDNA expression vector
# T1 sequence (D3ZGZ6 1-127 F4L): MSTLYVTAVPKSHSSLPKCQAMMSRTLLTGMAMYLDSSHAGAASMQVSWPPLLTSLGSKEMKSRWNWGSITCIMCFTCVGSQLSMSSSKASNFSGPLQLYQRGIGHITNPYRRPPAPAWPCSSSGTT
# Protocol: (§1) The Dahl S and Dahl R Dear cDNAs were subcloned directionally (5′ to 3′) into the pcDNA (+) expression vector (Invitrogen, Carlsbad, Calif.) and transiently expressed in Cos1 cells (ATCC). Cos1 cells were transfected with the expression vectors via lipofectin-mediated gene transfer and cell membranes were isolated 72 hr post-transfection for hormone binding. Rat kidney membranes were prepared essentially as described (42). COS-1 cell membranes were isolated as described (36). Briefly, cells were washed twice in phosphate-buffered saline and homogenized in 10-fold ice-cold buffer (0.25 M sucrose, 1 mM EDTA, 50 μg/ml aprotinin, 10 μg/ml leupeptin, 100 μM phenylmethylsulfonyl fluoride, 25 mM Imidazol/HCl, pH 7.4). The homogenate was centrifuged at 5,000 g for 15 min and the pellet was discarded. The supernatant was then centrifuged at 27,500 g for 30 min and the resulting pellet was washed twice in ice-cold suspension buffer (5 mM MgCl2, 0.2 mM EDTA, 50 mM Hepes, pH 7.4). The final pellet was resuspended into the appropriate assay buffer and quickly frozen in liquid nitrogen. The membrane preparations were store at −80° C. until use. Protein concentrations of the membranes were determined by BCA protein assay kit (PIERCE).
# (§2) Binding of [^125I]Tyr^4-angiotensin II and [^125I]Tyr^13-endothelin-1 to COS-1 membranes was performed by a rapid filtration method (32, 50). Briefly, [^125I]Tyr^4-angiotensin II ([…]) or [^125I]Tyr^13-endothelin-1 (0.045˜1.46 nM) was incubated with membranes (100 μg) for 20 min at 37° C. in 100 μl buffer A (5 mM MgCl2, 0.2 mM EDTA, 10 mg/ml BSA, 10 mM Hepes, pH7.4). Binding reactions were terminated by the addition of 1 ml ice-cold buffer A and immediately filtered through a Whatman GF/C filter (presoaked overnight at 4° C. in 10 mg/ml BSA) and subsequently washed with 15 ml ice-cold buffer A. Specific binding was determined as the difference between the total radioactivity bound to membranes and the radioactivity bound to blanks containing 1 μM AngII or 1 μM ET-1. The dissociation constant (Kd) and maximum ligand-binding sites (Bmax) were determined using Hill plot analysis (55). Hill coefficient values (h) were calculated from the relationship ln [B/(Bmax−B)]=h ln [free Radioligand]−ln Kd. An F test (P<0.05) was used to determine whether the saturation binding curves best fitted one or two independent binding sites. The data were best fit by two affinity states determined by Scatchard plot analysis; KH and KL designate the Kd for high- and low-affinity states of the receptor, respectively (44). Most results are expressed as the mean±SE (standard error) from three to five independent experiments.
# [2] = target: T2, Dahl R Dear S44P/M74T variant (Rattus norvegicus, UniProt D3ZGZ6, F4L/M74T/S44P); assay: Radioligand binding to Dahl R Dear expressed in Cos1 cell membranes; settings: for hormone binding (direct radioligand binding), in words: Dahl R Dear transiently expressed in Cos1 cells
# T2 construct: expressed in transfected cells; host or cells: Cos1 cells (membranes), pcDNA expression vector
# T2 sequence (D3ZGZ6 1-127 F4L/S44P/M74T): T1 sequence (D3ZGZ6 1-127 F4L) with S44P, M74T
# Protocol: as §1, §2
# [3] = target: T3, mouse Dear (Mus musculus, UniProt Q2QKR2); assay: Ligand binding to mouse Dear expressed in Cos-1 cells; settings: mouse receptor polypeptide, data not shown
# T3 construct: The mouse receptor polypeptide contains 127 amino acids showing 78 percent homology with the rat receptor; expressed in transfected cells; host or cells: Cos-1 cells (membranes)
# T3 sequence (Q2QKR2 1-127): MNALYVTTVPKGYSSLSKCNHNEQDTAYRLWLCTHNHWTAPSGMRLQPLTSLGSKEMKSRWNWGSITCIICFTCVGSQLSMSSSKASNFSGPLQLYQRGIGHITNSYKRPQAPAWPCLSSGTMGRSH
# Protocol: Mouse Dear cDNA was obtained by RT-PCR from C57BL/6 mouse kidney PolyA^+ RNA (forward primer, 5′-[…]-3′ (SEQ. ID. NO. 13); reverse primer, 5′-[…]-3′(SEQ. ID. NO. 14)), subcloned into the PT-vector system (Clontech, Palo Alto, Calif.) and then sequenced (GenBank accession no. DQ009865). RNA blot analysis was done as described (1) using PolyA^+ RNA (3 μg), γ-^32P end labeled anti-sense mouse Dear oligonucleotide (5′-[…]-3′(SEQ. ID. NO. 15)) as probe. Receptor expression studies, ^125I-ET-1-1 and ^125I-AngII binding to membranes were done as described (2).
# [4] = target: T1, Dahl S Dear S44/M74 variant; assay: West-western blot of kidney and Cos1 cell membranes (labeled ligand on protein blot); format: binding; settings: Dahl S kidney membranes (Kid-S) and Cos1-S membranes
# Protocol: (§3) A polyclonal rabbit antipeptide antibody raised against the synthetic peptide P51LLTSLGSKE60 (SEQ. ID. NO. 7) was utilized for western blot analysis (1). Plasma membranes (40 μg protein/lane) were subjected to 12.5% SDS-PAGE and the separated proteins electro-transferred onto PVDF membranes which were incubated with blocking buffer (0.3% Tween-20, 5% non-fat milk, 137 mM NaCl, 2.7 mM KCl, 8.1 mM Na2HPO4, and 1.5 mM KH2PO4, pH7.4) for 2 hr at room temperature, and then incubated with primary antibody (1:500) for 16 hr at 4° C. The PVDF membranes were then sequentially incubated with biotinylated goat anti-rabbit IgG followed by immunostaining with horseradish peroxidase-linked streptavidin. To confirm the interaction between Dear and ligands, we performed west-western blot analysis (62). Briefly, protein blots of kidney and COS-1 cell membranes were incubated with radioligands (0.5 μCi in 10 ml) in buffer A at 37° C. for 16 hr. PVDF membranes were then washed three times for 15 min with buffer A at 37° C. and exposed to X-ray film at −80° C. for 1-3 days.
# [5] = target: T2, Dahl R Dear S44P/M74T variant; assay: as above; format: binding; settings: Dahl R kidney membranes (Kid-R) and Cos1-R membranes
# Protocol: as §3
# [6] = [125I]Tyr13-Endothelin I, S44P/M74T variant, mean ± s.e.m.
"hormone binding, in words [1]","increased affinity for ET-1, Dahl S variant compared to Dahl R variant ([1]; KH, S44/M74 vs Dahl R variant) [fold]",Bmax ([1]; [125I]Tyr13-Endothelin I) [pmol/mg membrane protein],h (Hill coefficient) ([1]; [125I]Tyr13-Endothelin I),"hormone binding (direct radioligand binding), in words [2]","Bmax [2, 6] [pmol/mg membrane protein]","h (Hill coefficient) [2, 6]","ligand binding, in words [3]",binding in west-western blot analysis [4],binding in west-western blot analysis [5],"Bmax ([1]; [125I]Tyr4-Angiotensin II, Cos1 membranes) [pmol/mg membrane protein]",h (Hill coefficient) ([1]; [125I]Tyr4-Angiotensin II),"Bmax ([2]; [125I]Tyr4-Angiotensin II, S44P/M74T variant, Cos1 membranes)",SMILES
binding both ET-1 and AngII,3,26.25 ± 1.29,1.41 ± 0.12,exhibit normal ET-1 binding,20.21 ± 1.59,1.45 ± 0.09,binds solely ET-1,reveals binding,reveals binding,–,–,–,CC[C@H](C)[C@H](NC(=O)[C@H](CC(=O)O)NC(=O)[C@H](CC(C)C)NC(=O)[C@H](Cc1c[nH]cn1)NC(=O)[C@@H]1CSSC[C@H](N)C(=O)N[C@@H](CO)C(=O)N[C@H]2CSSC[C@H](NC(=O)[C@H](CCC(=O)O)NC(=O)[C@H](CCCCN)NC(=O)[C@H](CC(=O)O)NC(=O)[C@H](CCSC)NC(=O)[C@H](CC(C)C)NC(=O)[C@H](CO)NC(=O)[C@H](CO)NC2=O)C(=O)N[C@@H](C(C)C)C(=O)N[C@@H](Cc2ccc(O)c(I)c2)C(=O)N[C@@H](Cc2ccccc2)C(=O)N1)C(=O)N[C@H](C(=O)N[C@@H](Cc1c[nH]c2ccccc12)C(=O)O)[C@@H](C)CC [[^125I]Tyr^13-Endothelin I]
binding both ET-1 and AngII,–,–,–,do not exhibit AngII binding,–,–,–,detects binding,binding only to Dahl S kidney membranes,23.6 ± 0.92,2.63 ± 0.25,no binding,CC[C@H](C)[C@H](NC(=O)[C@H](Cc1ccc(O)c(I)c1)NC(=O)[C@@H](NC(=O)[C@H](CCCNC(=N)N)NC(=O)[C@@H](N)CC(=O)O)C(C)C)C(=O)N[C@@H](Cc1c[nH]cn1)C(=O)N1CCC[C@H]1C(=O)N[C@@H](Cc1ccccc1)C(=O)O [[^125I]Tyr^4-Angiotensin II]
